Measured values: the CheMixHub ionic liquid set
± gives the uncertainty stated by the source.

Assay: xn = mol fraction of the nth substance listed
Conditions: for viscosity: 100 kPa; for electrical conductivity: 101 kPa

CCCCCCCCCCCCOS(=O)(=O)[O-].[Na+] + O
Conditions | electrical conductivity, 298.15 K [S/m] | viscosity, 298.15 K [mPa·s] | viscosity, 303.15 K [mPa·s] | viscosity, 308.15 K [mPa·s] | viscosity, 313.15 K [mPa·s] | viscosity, 318.15 K [mPa·s]
x1 = 1.802e-05 | – | – | 0.764 ± 0.026 | 0.69 ± 0.026 | 0.599 ± 0.027 | 0.567 ± 0.026
x1 = 3.604e-05 | – | – | 0.766 ± 0.026 | 0.691 ± 0.026 | 0.6 ± 0.026 | 0.568 ± 0.026
x1 = 5.406e-05 | – | – | 0.767 ± 0.026 | 0.691 ± 0.026 | 0.601 ± 0.026 | 0.57 ± 0.026
x1 = 6.168e-05 | 0.02352 ± 1e-05 | – | – | – | – | –
x1 = 6.588e-05 | 0.02512 ± 1e-05 | – | – | – | – | –
x1 = 7.207e-05 | – | – | 0.768 ± 0.026 | 0.692 ± 0.026 | 0.601 ± 0.026 | 0.57 ± 0.026
x1 = 7.696e-05 | 0.02928 ± 1e-05 | – | – | – | – | –
x1 = 8.42e-05 | 0.03184 ± 2e-05 | – | – | – | – | –
x1 = 9.009e-05 | – | – | 0.769 ± 0.026 | 0.694 ± 0.026 | 0.602 ± 0.026 | 0.571 ± 0.026
x1 = 9.222e-05 | 0.03505 ± 2e-05 | – | – | – | – | –
x1 = 9.755e-05 | 0.03686 ± 2e-05 | – | – | – | – | –
x1 = 0.0001029 | 0.03889 ± 2e-05 | – | – | – | – | –
x1 = 0.0001081 | – | – | 0.77 ± 0.026 | 0.695 ± 0.026 | 0.603 ± 0.026 | 0.571 ± 0.026
x1 = 0.0001261 | – | – | 0.772 ± 0.026 | 0.696 ± 0.026 | 0.604 ± 0.026 | 0.572 ± 0.026
x1 = 0.0001441 | – | – | 0.773 ± 0.026 | 0.698 ± 0.026 | 0.605 ± 0.026 | 0.573 ± 0.026
x1 = 0.0001622 | – | – | 0.774 ± 0.026 | 0.7 ± 0.026 | 0.605 ± 0.026 | 0.574 ± 0.026
x1 = 0.0001802 | – | – | 0.775 ± 0.026 | 0.701 ± 0.026 | 0.606 ± 0.026 | 0.575 ± 0.026
x1 = 0.0001982 | – | – | 0.776 ± 0.026 | 0.702 ± 0.026 | 0.607 ± 0.026 | 0.576 ± 0.026
x1 = 0.0002162 | – | – | 0.776 ± 0.026 | 0.702 ± 0.026 | 0.608 ± 0.026 | 0.576 ± 0.026
x1 = 0.0002342 | – | – | 0.777 ± 0.026 | 0.704 ± 0.026 | 0.609 ± 0.026 | 0.577 ± 0.026
x1 = 0.0002522 | – | – | 0.778 ± 0.026 | 0.704 ± 0.026 | 0.609 ± 0.026 | 0.577 ± 0.026
x1 = 0.0002702 | – | 0.867 ± 0.027 | 0.779 ± 0.027 | 0.705 ± 0.026 | 0.61 ± 0.028 | 0.578 ± 0.026

298.15 K, frequency 0.001 MHz
Conditions | electrical conductivity [S/m]
x1 = 1.029e-05 | 0.00434 ± 0.00043
x1 = 2.57e-05 | 0.0104 ± 0.001
x1 = 3.699e-05 | 0.0155 ± 0.0016
x1 = 5.034e-05 | 0.0213 ± 0.0021
x1 = 6.37e-05 | 0.0264 ± 0.0026
x1 = 7.295e-05 | 0.0301 ± 0.003
x1 = 8.321e-05 | 0.0349 ± 0.0035
x1 = 9.348e-05 | 0.0392 ± 0.0039
x1 = 0.0001038 | 0.0422 ± 0.0042
x1 = 0.000113 | 0.0461 ± 0.0046
x1 = 0.0001212 | 0.051 ± 0.0051
x1 = 0.0001315 | 0.054 ± 0.0054
x1 = 0.0001418 | 0.0567 ± 0.0057
x1 = 0.00015 | 0.0607 ± 0.0061
x1 = 0.0001582 | 0.0631 ± 0.0063
x1 = 0.0001665 | 0.0649 ± 0.0065
x1 = 0.000183 | 0.0673 ± 0.0067
x1 = 0.0001944 | 0.0683 ± 0.0068
x1 = 0.0002036 | 0.0701 ± 0.007
x1 = 0.000214 | 0.0713 ± 0.0071
x1 = 0.0002222 | 0.0737 ± 0.0074
x1 = 0.0002315 | 0.075 ± 0.0075
x1 = 0.0002408 | 0.0771 ± 0.0077
x1 = 0.0002521 | 0.0792 ± 0.0079
x1 = 0.0002625 | 0.0801 ± 0.008
x1 = 0.0002738 | 0.0823 ± 0.0082
x1 = 0.0002862 | 0.0841 ± 0.0084
